Reference: patent publication US12343321B1, “Method for ameliorating or avoiding the adverse effects of exogenous gonadotropins on reproductive performance” (CHINA AGRICULTURAL UNIVERSITY, priority 2024, dated 2025)
“Also recorded” adds a separate entry of the source. Marks after values point to notes of the source that are not given here.

How the values were obtained:
[1] = tested on: ICR female mice treated with eCG/hCG; assay: Embryo implantation sites after embryo transfer in gonadotropin-treated mice; assay type: in vivo, mouse; details: for effect on implantation and live birth, alone or in synergy with NAC/VA: 200 mg/kg BW alone, or 100 + 100 mg/kg BW with NAC/VA; for number of implantation sites compared with control group (exogenous gonadotropin only): 12 embryos transferred on day 4, counted on day 5 of pregnancy, drugs 200 mg/kg BW total i.p. daily, BGJ398 100 μM via uterine horn
From the text: (§1) In the animal experiment, ICR female mice (SPF grade, 8 weeks old, 28-30 g) were selected and randomized into groups of 10-18, including normal control group (CON), superovulation stimulation group (eCG/hCG), superovulation stimulation and BGJ398 group (eCG/hCG+BGJ398), superovulation stimulation and NAC single administration group (eCG/hCG+NAC), superovulation stimulation and VA single administration group (eCG/hCG+VA), superovulation stimulation and NAC and VA combined administration group (eCG/hCG+NAC+VA). The temperature of the breeding environment was 22° C., 12-h light/dark cycle was performed, and the mice were provided with free access to water and food. After the animals were purchased, they were acclimated for 5-7 days.
Superovulation stimulation and BGJ398 group (eCG/hCG+BGJ398): Female 8-week-old ICR mice were taken as the research object and injected with 10 IU eCG and […] to induce superovulation, respectively. On day 3 of pregnancy, the mice were injected with 5 μL of FGF receptor inhibitor containing 100 μM BGJ398 inhibitor through the uterine horn. Embryo transfer was then performed on day 4 after the vaginal plug was observed.
(§2) Superovulation stimulation and NAC single administration group (eCG/hCG+NAC): A female 8-week-old ICR mouse was taken as the research object. On the basis of the treatment of the superovulation stimulation group (eCG/hCG), each mouse was intraperitoneally injected with NAC at a dose of 200 mg/kg BW daily 5 days prior to the injection of eCG. Embryo transfer was then performed on day 4 after the vaginal plug was observed. The injection was continued until day 10 of pregnancy.
as §2, with “VA” for “NAC”, “(eCG/hCG+VA):” for “(eCG/hCG+NAC):”, “eCG/hCG.” for “eCG.”
as §2, with “and VA combined” for “single”, “(eCG/hCG+NAC+VA):” for “(eCG/hCG+NAC):”, “with a mixture of” for “with”, “100 mg/kg BW and VA at a dose of 100” for “200”
The mice in the CON group, eCG/hCG group, eCG/hCG+BGJ398 group, eCG/hCG+NAC group, eCG/hCG+VA group, and eCG/hCG+NAC+VA group were separately in the same cage and mated with a vasoligated male mouse. The vaginal plug was checked at about 8 am in the next morning. The pseudopregnant female mouse whose vaginal plug was observed was ready for transfer. The day when the vaginal plug was observed was taken as day 1, and day 4 was the date of blastocyst transfer. […]
Embryo transfer was separately performed on the mice in the CON group, eCG/hCG group, eCG/hCG+BGJ398 group, eCG/hCG+NAC group, eCG/hCG+VA group, and eCG/hCG+NAC+VA group on day 4 of pregnancy; embryo implantation sites were counted by orbital injection of Chicago blue on day 5 of pregnancy. […]

[2] = tested on: ICR female mice treated with eCG/hCG; assay: Live birth after embryo transfer in gonadotropin-treated mice; assay type: in vivo; details: for live births compared with control group (exogenous gonadotropin only): 12 embryos transferred on day 4, counted on day of delivery, drugs 200 mg/kg BW total i.p. daily
Experimental: Superovulation stimulation and BGJ398 group (eCG/hCG+BGJ398): Female 8-week-old ICR mice were taken as the research object and injected with 10 IU eCG and PMSG to induce superovulation, respectively. On day 3 of pregnancy, the mice were injected with 5 μL of FGF receptor inhibitor containing 100 μM BGJ398 inhibitor through the uterine horn. Embryo transfer was then performed on day 4 after the vaginal plug was observed.
Superovulation stimulation and VA single administration group (eCG/hCG+VA): A female 8-week-old ICR mouse was taken as the research object. On the basis of the treatment of the superovulation stimulation group (eCG/hCG), each mouse was intraperitoneally injected with VA at a dose of 200 mg/kg BW daily 5 days prior to the injection of eCG/hCG. Embryo transfer was then performed on day 4 after the vaginal plug was observed. The injection was continued until day 10 of pregnancy.
Superovulation stimulation and NAC and VA combined administration group (eCG/hCG+NAC+VA): A female 8-week-old ICR mouse was taken as the research object. On the basis of the treatment of the superovulation stimulation group (eCG/hCG), each mouse was intraperitoneally injected with a mixture of NAC at a dose of 100 mg/kg BW and VA at a dose of 100 mg/kg BW daily 5 days prior to the injection of eCG. Embryo transfer was then performed on day 4 after the vaginal plug was observed. The injection was continued until day 10 of pregnancy.
Embryo transfer was separately performed on the mice in the CON group, eCG/hCG group, eCG/hCG+BGJ398 group, eCG/hCG+NAC group, eCG/hCG+VA group, and eCG/hCG+NAC+VA group on day 4 of pregnancy, and the mice were then placed in the animal house for normal feeding. On the day of delivery, the number born alive index was counted. […]

[3] = tested on: pERK; assay: Molecular detection of pERK in mouse endometrium after eCG/hCG treatment; assay type: in vivo; details: day 4 after vaginal plug, NAC 200 mg/kg BW i.p. daily, BGJ398 100 μM, 5 μL via uterine horn, or NAC 100 + VA 100 mg/kg BW
From the text: (§3) 2.2 Molecular Regulation Effect of N-Acetylcysteine in Combination with Vitamin A on Alleviating Uterine Receptivity Decrease Induced by Gonadotropin Treatments
as §1
(§4) Control group (CON): A female 8-week-old ICR mouse was taken as the research object, subjected to natural estrus, mated with a vasoligated male mouse, and was taken as the control group. The uterus of the mouse was then separated on day 4 after the vaginal plug was observed, namely, when the uterine receptivity was established, and the detection of a plurality of signal molecules was carried out. […]

[4] = tested on: Gilts; assay: Reproductive performance of gilts in batch farrowing with FTAI (pregnancy rate, farrowing rate); assay type: in vivo, pig; details: for Estrus detection rate (%) / Farrowing rate (%) / Pregnancy Rate (%): batch farrowing with FTAI (eCG/GnRH), drugs in feed, 200 mg/kg BW total daily; for female pig farrowing rate compared with batch farrowing with FTAI (control group) / female pig pregnancy rate compared with batch farrowing with FTAI (control group): eCG/GnRH, result in words
From the text: Gilts with the weight of 120-140 kg and the age of 200-250 days were selected for the experiment, which were divided into the batch farrowing with FTAI (CON) group, batch farrowing supplemented with NAC (NAC) group, batch farrowing supplemented with VA (VA) group, batch farrowing with combined administration of NAC and VA (NAC+VA 1:1) group, batch farrowing with combined administration of NAC and VA (NAC+VA […]) group, and batch farrowing with combined administration of NAC and VA (NAC+VA 9:1) group. Each group had 48-55 gilts.
The technical process of batch farrowing of the gilts in the CON group (namely the batch farrowing with FTAI scheme) was as follows: 1) estrus synchronization treatment: the gilt orally taken altrenogest for 18 days; 2) after an interval of 42 h after the estrus synchronization treatment, exogenous gonadotropin eCG was injected to induce follicular development synchronization; 3) after an interval of 80 h after eCG injection, an ovulatio induction drugs (GnRH) was injected. After an interval of 24 h after the injection, a first mating was carried out, and then after an interval of 16 h, a second mating was carried out. Pregnancy examination was then performed and the gilts were fed normally until delivery.
On the basis of the technical process of batch farrowing of the gilts in the CON group, in the NAC group, VA group, and NAC+VA group, NAC at a dose of 200 mg/kg BW, VA at a dose of 200 mg/kg BW, combined addition of NAC (100 mg/kg BW) and VA (100 mg/kg BW), combined addition of NAC (20 mg/kg BW) and VA (180 mg/kg BW), and combined addition of NAC (180 mg/kg BW) and VA (20 mg/kg BW) were separately added into the feed daily 14 days prior to the eCG injection until the end of first pregnancy examination (day 30-32 of pregnancy). The gilts were then fed normally until delivery.
The pregnancy rate of the female pigs was counted through pregnancy examination; the farrowing rate of the female pigs was counted during delivery. The pregnancy rate and the farrowing rate of female pigs from different treatment groups were calculated as follows: Female pig pregnancy rate=pregnant female pig count/mated female pig count×100% Female pig farrowing rate=delivery female pig count/mated female pig count×100%

[5] = tested on: ERα; assay: Molecular detection of ERα in mouse endometrium after eCG/hCG treatment; assay type: in vivo; details: day 4 after vaginal plug, VA 200 mg/kg BW i.p. daily alone, or NAC 100 + VA 100 mg/kg BW
From the text: as §3, §1, §4

Row | SMILES | effect on implantation and live birth, alone or in synergy with NAC/VA [1] | number of implantation sites compared with control group (exogenous gonadotropin only) [1] | toxicity to fetal development after implantation ([2]; BGJ398 100 μM, 5 μL via uterine horn on day 3) | excessive phosphorylation of pERK (exogenous gonadotropin-induced pERK overexpression) [3] | Estrus detection rate (%) [4] [%] | Farrowing rate (%) [4] | Pregnancy Rate (%) [4] | female pig farrowing rate compared with batch farrowing with FTAI (control group) [4] | female pig pregnancy rate compared with batch farrowing with FTAI (control group) [4] | live births compared with control group (exogenous gonadotropin only) [2] | expression of ERα (exogenous gonadotropin-induced ERα overexpression) [5]
1 | O=C1O[C@H]([C@@H](O)CO)C(O)=C1O [VC, vitamin C] | do not work well | – | – | – | – | – | – | – | – | – | –
2 | COc1ccc2[nH]cc(CCNC(C)=O)c2c1 [MT, melatonin] | do not work well | – | – | – | – | – | – | – | – | – | –
3 | CCN1CCN(c2ccc(Nc3cc(N(C)C(=O)Nc4c(Cl)c(OC)cc(OC)c4Cl)ncn3)cc2)CC1 [BGJ398] | – | significantly higher; also recorded: significantly increase | highly toxic; also recorded: negatively affect fetal development; also recorded: fetus regressed | significantly inhibit | – | – | – | – | – | – | –
4 | CC1=C(/C=C/C(C)=C/C=C/C(C)=C/CO)C(C)(C)CCC1 [VA, vitamin A] | – | increased to some extent | – | – | 93.75 | 83.33^b % | 89.58^b % | significantly improve | significantly improve | increased to some extent | significantly inhibits
5 | CC(=O)N[C@@H](CS)C(=O)O [NAC, N-acetyl-L-cysteine] | – | increased to some extent | – | significantly inhibit | 88.89 | 81.48^b % | 85.19^b % | significantly improve | significantly improve | increased to some extent | –
